Laboratory results as given in US8394967B2, “Antioxidant inflammation modulators: C-17 homologated oleanolic acid derivatives” (Reata Pharmaceuticals, Inc., priority 2008, dated 2013).
pIC50: −log10 of the molar value. Read-outs that look alike come from different tables or passages of the source.

What was measured:
RAW264.7 macrophages = test: Cell viability of RAW264.7 macrophages (WST-1 reagent); type: cell-based, mouse; settings: cell viability, RAW264.7, 20 ng/ml IFNγ 24 hours, WST-1 reagent, read-out: RAW264.7 (20 ng/ml IFNγ) WST-1 IC50
Experimental: (§1) FIGS. 1-4, 6 and 8. Inhibition of NO Production. RAW264.7 macrophages were pre-treated with DMSO or drugs at various concentrations (nM) for 2 hours, then treated with 20 ng/ml IFNγ for 24 hours. NO concentration in media was determined using a Griess reagent system; cell viability was determined using WST-1 reagent.
(§2) Nitric Oxide production and cell viability. RAW264.7 macrophages were pre-treated with DMSO or drugs for 2 hours, then treated with recombinant mouse IFNγ (Sigma) for 24 hours. NO concentration in media was determined using the Griess reagent system (Promega). Cell viability was determined using WST-1 reagent (Roche).

[1] = test system: NO production in RAW264.7 macrophages; test: Inhibition of NO production in IFNγ-treated RAW264.7 macrophages (Griess reagent); type: cell-based, mouse; settings: then 20 ng/ml IFNγ for 24 hours
Experimental: as §1, §2

[2] = Mus musculus, RAW264.7, RAW264.7 macrophages pre-treated 2 hours
[3] = RAW264.7 macrophages pre-treated 2 hours

| Structure (SMILES) | pIC50 (RAW264.7 macrophages; Mus musculus, RAW264.7, 24 h) | pIC50 [1, 2] | pIC50 (RAW264.7 macrophages) | pIC50 [1, 3] |
| --- | --- | --- | --- | --- |
| CC1(C)CC[C@]2(CSc3ccccc3)CC[C@]3(C)[C@H](C(=O)C[C@@H]4[C@@]5(C)C=C(C#N)C(=O)C(C)(C)[C@@H]5CC[C@]43C)[C@@H]2C1 [Compound 63235, (4aR,6aR,6bR,8aS,12aS,12bR,14aR,14bR)-4,4,6a,6b,11,11,14b-heptamethyl-3,13-dioxo-8a-(phenylthiomethyl)-3,4,4a,5,6,6a,6b,7,8,8a,9,10,11,12,12a,12b,13,14,14a,14b-icosahydropicene-2-carbonitrile] | ~6.82 | ~7.10 |  |  |
| CC1(C)CC[C@]2(C(O)CBr)CC[C@]3(C)[C@H](C(=O)C[C@@H]4[C@@]5(C)C=C(C#N)C(=O)C(C)(C)[C@@H]5CC[C@]43C)[C@@H]2C1 (single isomer, unassigned) [Compound 63284] |  |  | ~6.70 | ~7.82 |
| CC1(C)CC[C@]2(COP(=O)(O)O)CC[C@]3(C)[C@H](C(=O)C[C@@H]4[C@@]5(C)C=C(C#N)C(=O)C(C)(C)[C@@H]5CC[C@]43C)[C@@H]2C1 [Compound 63269, ((4aS,6aR,6bR,8aR,12aR,12bR,14aR,14bS)-11-cyano-2,2,6a,6b,9,9,12a-heptamethyl-10,14-dioxo-1,2,3,4,4a,5,6,6a,6b,7,8,8a,9,10,12a,12b,13,14,14a,14b-icosahydropicen-4a-yl)methyl dihydrogen phosphate] | < 6.70 | < 6.70 |  |  |
| C#C[C@]12CCC(C)(C)C[C@H]1[C@H]1C(=O)C[C@@H]3[C@@]4(C)C=C(C#N)C(=O)C(C)(C)[C@@H]4CC[C@@]3(C)[C@]1(C)CC2 [Compound 63303, (4aR,6aR,6bR,8aS,12aS,12bR,14aR,14bR)-8a-ethynyl-4,4,6a,6b,11,11,14b-heptamethyl-3,13-dioxo-3,4,4a,5,6,6a,6b,7,8,8a,9,10,11,12,12a,12b,13,14,14a,14b-icosahydropicene-2-carbonitrile] | ~6.82 | ~7.74 |  |  |
| CC1(C)CC[C@]2(COC(=O)C(F)(F)F)CC[C@]3(C)[C@H](C(=O)C[C@@H]4[C@@]5(C)C=C(C#N)C(=O)C(C)(C)[C@@H]5CC[C@]43C)[C@@H]2C1 [Compound 63294, ((4aS,6aR,6bR,8aR,12aR,12bR,14aR,14bS)-11-cyano-2,2,6a,6b,9,9,12a-heptamethyl-10,14-dioxo-1,2,3,4,4a,5,6,6a,6b,7,8,8a,9,10,12a,12b,13,14,14a,14b-icosahydropicen-4a-yl)methyl 2,2,2-trifluoroacetate] | < 6.70 | ~8.05 |  |  |
| CC1(C)CC[C@]2(CNCC(F)(F)F)CC[C@]3(C)[C@H](C(=O)C[C@@H]4[C@@]5(C)C=C(C#N)C(=O)C(C)(C)[C@@H]5CC[C@]43C)[C@@H]2C1 [Compound 63273, (4aR,6aR,6bR,8aS,12aS,12bR,14aR,14bR)-4,4,6a,6b,11,11,14b-heptamethyl-3,13-dioxo-8a-((2,2,2-trifluoroethylamino)methyl)-3,4,4a,5,6,6a,6b,7,8,8a,9,10,11,12,12a,12b,13,14,14a,14b-icosahydropicene-2-carbonitrile] | ~6.70 | ~7.10 |  |  |
| CC1(C)CC[C@]2(CS(=O)(=O)c3ccccc3)CC[C@]3(C)[C@H](C(=O)C[C@@H]4[C@@]5(C)C=C(C#N)C(=O)C(C)(C)[C@@H]5CC[C@]43C)[C@@H]2C1 [Compound 63266, (4aR,6aR,6bR,8aS,12aS,12bR,14aR,14bR)-4,4,6a,6b,11,11,14b-heptamethyl-3,13-dioxo-8a-(phenylsulfonylmethyl)-3,4,4a,5,6,6a,6b,7,8,8a,9,10,11,12,12a,12b,13,14,14a,14b-icosahydropicene-2-carbonitrile] | < 6.70 | ~7.52 |  |  |
| CC1(C)CC[C@]2(CC(=O)O)CC[C@]3(C)[C@H](C(=O)C=C4[C@@]5(C)C=C(C#N)C(=O)C(C)(C)[C@@H]5CC[C@]43C)[C@@H]2C1 [Compound 402-54, 2-((4aR,6aR,6bS,8aR,12aS,14aR,14bS)-11-cyano-2,2,6a,6b,9,9,12a-heptamethyl-10,14-dioxo-1,2,3,4,4a,5,6,6a,6b,7,8,8a,9,10,12a,14,14a,14b-octadecahydropicen-4a-yl)acetic acid] | < 6.70 | ~8.22 |  |  |
| CC1(C)CC[C@]2([C@H]3COCO3)CC[C@]3(C)[C@H](C(=O)C[C@@H]4[C@@]5(C)C=C(C#N)C(=O)C(C)(C)[C@@H]5CC[C@]43C)[C@@H]2C1 [Compound 63285, (4aR,6aR,6bR,8aS,12aS,12bR,14aR,14bR)-8a-((S)-1,3-dioxolan-4-yl)-4,4,6a,6b,11,11,14b-heptamethyl-3,13-dioxo-3,4,4a,5,6,6a,6b,7,8,8a,9,10,11,12,12a,12b, 13,14,14a,14b-icosahydropicene-2-carbonitrile] | < 6.70 | ~7.82 |  |  |
| CC1(C)CC[C@]2(COC(=O)c3ccccc3)CC[C@]3(C)[C@H](C(=O)C[C@@H]4[C@@]5(C)C=C(C#N)C(=O)C(C)(C)[C@@H]5CC[C@]43C)[C@@H]2C1 [Compound 63298, ((4aS,6aR,6bR,8aR,12aR,12bR,14aR,14bS)-11-cyano-2,2,6a,6b,9,9,12a-heptamethyl-10,14-dioxo-1,2,3,4,4a,5,6,6a,6b,7,8,8a,9,10,12a,12b,13,14,14a,14b-icosahydropicen-4a-yl)methyl benzoate] | ~6.70 | ~7.10 |  |  |
| CC1(C)CC[C@]2(C[S+]([O-])c3ccccc3)CC[C@]3(C)[C@H](C(=O)C[C@@H]4[C@@]5(C)C=C(C#N)C(=O)C(C)(C)[C@@H]5CC[C@]43C)[C@@H]2C1 (stereo partly drawn) [Compound 63255, (4aR,6aR,6bR,8aS,12aS,12bR,14aR,14bR)-4,4,6a,6b,11,11,14b-heptamethyl-3,13-dioxo-8a-(phenylsulfinylmethyl)-3,4,4a,5,6,6a,6b,7,8,8a,9,10,11,12,12a,12b,13,14,14a,14b-icosahydropicene-2-carbonitrile] | < 6.70 | ~7.30 |  |  |
| CC1(C)CC[C@]2([C@@H]3CO3)CC[C@]3(C)[C@H](C(=O)C[C@@H]4[C@@]5(C)C=C(C#N)C(=O)C(C)(C)[C@@H]5CC[C@]43C)[C@@H]2C1 [Compound 63275, (4aR,6aR,6bR,8aS,12aS,12bR,14aR,14bR)-4,4,6a,6b,11,11,14b-heptamethyl-8a-((R)-oxiran-2-yl)-3,13-dioxo-3,4,4a,5,6,6a,6b,7,8,8a,9,10,11,12,12a,12b,13,14,14a,14b-icosahydropicene-2-carbonitrile] | < 6.70 | ~7.82 |  |  |
| CC1(C)CC[C@]2(CN3C(=O)c4ccccc4C3=O)CC[C@]3(C)[C@H](C(=O)C[C@@H]4[C@@]5(C)C=C(C#N)C(=O)C(C)(C)[C@@H]5CC[C@]43C)[C@@H]2C1 [Compound 63276, (4aR,6aR,6bR,8aS,12aS,12bR,14aR,14bR)-8a-((1,3-dioxoisoindolin-2-yl)methyl)-4,4,6a,6b,11,11,14b-heptamethyl-3,13-dioxo-3,4,4a,5,6,6a,6b,7,8,8a,9,10,11,12,12a,12b,13,14,14a,14b-icosahydropicene-2-carbonitrile] | ~6.82 | ~7.30 |  |  |
| CC1(C)CC[C@]2(C(O)CBr)CC[C@]3(C)[C@H](C(=O)C[C@@H]4[C@@]5(C)C=C(C#N)C(=O)C(C)(C)[C@@H]5CC[C@]43C)[C@@H]2C1 (single isomer, unassigned) [Compound 63283] |  |  | ~6.70 | ~7.70 |
| CC1(C)CC[C@]2(C3CO3)CC[C@]3(C)[C@H](C(=O)C[C@@H]4[C@@]5(C)C=C(C#N)C(=O)C(C)(C)[C@@H]5CC[C@]43C)[C@@H]2C1 (single isomer, unassigned) [Compound 63286] |  |  | < 6.70 | ~7.89 |
| CC1(C)CC[C@]2([C@@H](O)CCl)CC[C@]3(C)[C@H](C(=O)C[C@@H]4[C@@]5(C)C=C(C#N)C(=O)C(C)(C)[C@@H]5CC[C@]43C)[C@@H]2C1 (single isomer, unassigned) [Compound 63282] | < 6.70 | ~7.60 |  |  |
| COC(=O)C[C@]12CCC(C)(C)C[C@H]1[C@H]1C(=O)C=C3[C@@]4(C)C=C(C#N)C(=O)C(C)(C)[C@@H]4CC[C@@]3(C)[C@]1(C)CC2 [Compound 402-50, methyl-2-((4aR,6aR,6bS,8aR,12aS,14aR,14bS)-11-cyano-2,2,6a,6b,9,9,12a-heptamethyl-10,14-dioxo-1,2,3,4,4a,5,6,6a,6b,7,8,8a,9,10,12a,14,14a,14b-octadecahydropicen-4a-yl)acetate] | 7.12 | ~8.60 |  |  |
| CC(=O)OC[C@]12CCC(C)(C)C(C#N)[C@H]1[C@H]1C(=O)CC3[C@@]4(C)C=CC(=O)C(C)(C)[C@@H]4CC[C@@]3(C)[C@]1(C)CC2 (stereo partly drawn) [Compound 402-65, ((4aS,6aR,6bR,8aR,12aR,14aR,14bS)-1-cyano-2,2,6a,6b,9,9,12a-heptamethyl-10,14-dioxo-1,2,3,4,4a,5,6,6a,6b,7,8,8a,9,10,12a,12b,13,14,14a,14b-icosahydropicen-4a-yl)methyl acetate] | < 6.70 | ~7.90 |  |  |
| C=C[C@]12CCC(C)(C)C[C@H]1[C@H]1C(=O)CC3[C@@]4(C)C=C(C#N)C(=O)C(C)(C)C4CC[C@@]3(C)[C@]1(C)CC2 (stereo partly drawn) [Compound 63213, (6aR,6bR,8aR,12aS,12bR,14bR)-4,4,6a,6b,11,11,14b-heptamethyl-3,13-dioxo-8a-vinyl-3,4,4a,5,6,6a,6b,7,8,8a,9,10,11,12,12a,12b,13,14,14a,14b-icosahydropicene-2-carbonitrile] | ~6.70 | ~7.40 |  |  |
